Assay results published in ChEMBL document CHEMBL5360570, “Discovery of pyrazolo[3,4-b]pyridine derivatives as novel and potent Mps1 inhibitors for the treatment of cancer” (Eur J Med Chem, 2023).

What was measured:
[1] = tested on: Fibroblast growth factor receptor 2 (Homo sapiens), P21802 [K526E]; test: Inhibition of FGFR2 K526E mutant (unknown origin) assessed as residual activity at 1 uM relative to control
[2] = MRT (0 to infinity) in Sprague-Dawley rat at 2 mg/kg, iv measured upto 24 hrs by LC-MS/MS analysis; assay type: ADME, organism-based; conditions: in vivo
[3] = tested on: EML4-ALK (Homo sapiens), Q9UM73+Q9HC35 [F1174L]; test: Inhibition of ALK F1174L mutant (unknown origin)/EML4 (unknown origin) assessed as residual activity at 1 uM relative to control; assay type: protein assay
[4] = biological target: ALK tyrosine kinase receptor (Homo sapiens) (UniProt Q9UM73); test: Inhibition of ALK (unknown origin) assessed as residual activity at 1 uM relative to control
[5] = tested on: ALK tyrosine kinase receptor (Homo sapiens), Q9UM73 [S1206R]; test: Inhibition of ALK S1206R mutant (unknown origin) assessed as residual activity at 1 uM relative to control
[6] = tested on: NPM/ALK (Nucleophosmin/ALK tyrosine kinase receptor) (Homo sapiens), Q9UM73+P06748 [F1174L]; test: Inhibition of ALK F1174L mutant (unknown origin)/NPM1 (unknown origin) assessed as residual activity at 1 uM relative to control; assay type: protein assay
[7] = MRT (0 to infinity) in Sprague-Dawley rat at 10 mg/kg, po measured upto 24 hrs by LC-MS/MS analysis; assay type: ADME, organism-based; conditions: in vivo
[8] = biological target: NUAK family SNF1-like kinase 2 (Homo sapiens) (UniProt Q9H093); test: Inhibition of SNARK (unknown origin) assessed as residual activity at 1 uM relative to control
MDA-MB-468 = test: cells; assay type: functional, cell-based; conditions: Homo sapiens, MDA-MB-468, 72 h
Description: Antiproliferative activity against human MDA-MB-468 cells assessed inhibition of cell growth incubated for 72 hrs by CCK-8 assay

[9] = Toxicity in BALB/c nude mouse xenografted with human MDA-MB-468 cells assessed as change in body weight at 30 mg/kg, iv administered once daily for 21 days […]; assay type: organism-based; conditions: in vivo, 504 h, time 21 day
[10] = tested on: ALK tyrosine kinase receptor (Homo sapiens), Q9UM73 [F1174S]; test: Inhibition of ALK F1174S mutant (unknown origin) assessed as residual activity at 1 uM relative to control
[11] = biological target: Tyrosine-protein kinase Fer (Homo sapiens) (UniProt P16591); test: Inhibition of FER (unknown origin) assessed as residual activity at 1 uM relative to control
Sequence of Tyrosine-protein kinase Fer (Homo sapiens) (P16591 whole entry, looked up): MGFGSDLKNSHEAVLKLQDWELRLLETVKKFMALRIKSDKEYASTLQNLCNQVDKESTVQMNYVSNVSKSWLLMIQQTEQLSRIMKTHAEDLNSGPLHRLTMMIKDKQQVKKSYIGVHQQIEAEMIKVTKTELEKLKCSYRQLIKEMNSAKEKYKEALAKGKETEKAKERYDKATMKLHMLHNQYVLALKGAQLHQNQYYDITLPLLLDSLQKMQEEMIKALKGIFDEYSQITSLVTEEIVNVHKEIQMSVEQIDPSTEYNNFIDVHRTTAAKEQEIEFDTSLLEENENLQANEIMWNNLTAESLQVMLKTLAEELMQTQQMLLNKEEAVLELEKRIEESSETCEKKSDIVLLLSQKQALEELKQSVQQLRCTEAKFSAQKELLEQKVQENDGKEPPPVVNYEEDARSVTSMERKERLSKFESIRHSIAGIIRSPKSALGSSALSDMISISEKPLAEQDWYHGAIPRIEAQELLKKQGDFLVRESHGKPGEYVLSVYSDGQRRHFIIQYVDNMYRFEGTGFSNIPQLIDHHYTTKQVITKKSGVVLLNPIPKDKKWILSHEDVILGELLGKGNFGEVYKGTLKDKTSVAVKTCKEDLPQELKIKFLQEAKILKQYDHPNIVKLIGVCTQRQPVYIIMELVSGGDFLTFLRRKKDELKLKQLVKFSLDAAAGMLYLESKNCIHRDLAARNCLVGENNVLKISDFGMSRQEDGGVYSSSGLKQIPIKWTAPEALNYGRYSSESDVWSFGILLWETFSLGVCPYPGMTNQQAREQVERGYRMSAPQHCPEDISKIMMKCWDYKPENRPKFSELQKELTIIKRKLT

[12] = Tmax in Sprague-Dawley rat at 10 mg/kg, po measured upto 24 hrs by LC-MS/MS analysis; assay type: ADME, organism-based; conditions: in vivo
[13] = tested on: ALK tyrosine kinase receptor (Homo sapiens), Q9UM73 [UNDEFINED MUTATION]; test: Inhibition of ALK T1151/L1152 mutant (unknown origin) assessed as residual activity at 1 uM relative to control
Sequence of ALK tyrosine kinase receptor (Homo sapiens), Q9UM73 [UNDEFINED MUTATION] (Q9UM73 whole entry, looked up, change not shown): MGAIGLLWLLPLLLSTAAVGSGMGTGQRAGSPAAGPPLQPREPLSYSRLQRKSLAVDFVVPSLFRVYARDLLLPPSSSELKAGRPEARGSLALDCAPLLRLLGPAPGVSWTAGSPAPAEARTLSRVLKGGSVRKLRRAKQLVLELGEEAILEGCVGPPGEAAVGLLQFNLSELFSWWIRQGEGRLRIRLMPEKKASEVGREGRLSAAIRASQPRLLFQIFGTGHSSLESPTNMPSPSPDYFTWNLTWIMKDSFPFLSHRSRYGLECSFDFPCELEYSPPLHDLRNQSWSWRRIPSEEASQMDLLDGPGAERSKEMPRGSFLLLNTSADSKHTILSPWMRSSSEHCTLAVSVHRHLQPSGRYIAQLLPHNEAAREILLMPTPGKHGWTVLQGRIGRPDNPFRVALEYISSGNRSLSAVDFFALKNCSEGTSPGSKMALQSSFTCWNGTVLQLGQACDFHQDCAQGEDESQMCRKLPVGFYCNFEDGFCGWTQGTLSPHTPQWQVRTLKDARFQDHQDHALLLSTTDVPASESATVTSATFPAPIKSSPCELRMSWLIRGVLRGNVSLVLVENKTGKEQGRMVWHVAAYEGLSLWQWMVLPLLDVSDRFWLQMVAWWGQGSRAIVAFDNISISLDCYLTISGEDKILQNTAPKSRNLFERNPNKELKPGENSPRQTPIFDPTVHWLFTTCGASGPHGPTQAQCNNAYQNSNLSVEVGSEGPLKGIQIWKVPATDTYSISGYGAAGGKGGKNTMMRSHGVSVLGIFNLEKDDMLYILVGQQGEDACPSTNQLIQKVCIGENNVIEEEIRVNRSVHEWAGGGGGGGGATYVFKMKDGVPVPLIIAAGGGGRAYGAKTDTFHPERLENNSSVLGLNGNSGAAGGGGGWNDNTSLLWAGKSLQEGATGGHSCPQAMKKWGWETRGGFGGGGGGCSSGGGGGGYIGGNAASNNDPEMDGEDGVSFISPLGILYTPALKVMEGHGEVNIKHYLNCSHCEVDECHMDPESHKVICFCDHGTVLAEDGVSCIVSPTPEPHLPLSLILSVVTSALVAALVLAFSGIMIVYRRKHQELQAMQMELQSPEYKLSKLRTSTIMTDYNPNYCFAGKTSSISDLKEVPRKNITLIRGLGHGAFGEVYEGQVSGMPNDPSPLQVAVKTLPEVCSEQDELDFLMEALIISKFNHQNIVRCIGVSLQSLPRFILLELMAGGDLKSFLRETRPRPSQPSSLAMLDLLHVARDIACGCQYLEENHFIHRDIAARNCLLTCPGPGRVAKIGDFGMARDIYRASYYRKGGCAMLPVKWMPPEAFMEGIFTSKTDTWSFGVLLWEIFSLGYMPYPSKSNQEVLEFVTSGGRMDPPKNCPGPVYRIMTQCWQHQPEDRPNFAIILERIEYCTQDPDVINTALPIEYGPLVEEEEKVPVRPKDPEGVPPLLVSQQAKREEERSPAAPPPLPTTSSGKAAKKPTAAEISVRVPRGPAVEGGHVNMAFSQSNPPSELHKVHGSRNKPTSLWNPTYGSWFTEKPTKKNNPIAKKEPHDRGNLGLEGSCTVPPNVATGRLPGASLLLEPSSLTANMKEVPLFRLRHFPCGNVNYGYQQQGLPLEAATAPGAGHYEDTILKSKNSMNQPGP

[14] = biological target: NPM/ALK (Nucleophosmin/ALK tyrosine kinase receptor) (Homo sapiens) (UniProt Q9UM73+P06748); test: Inhibition of ALK-NPM1 (unknown origin) assessed as residual activity at 1 uM relative to control; assay type: protein assay
Sequence of NPM/ALK (Nucleophosmin/ALK tyrosine kinase receptor) (Homo sapiens) (P06748 whole entry partner): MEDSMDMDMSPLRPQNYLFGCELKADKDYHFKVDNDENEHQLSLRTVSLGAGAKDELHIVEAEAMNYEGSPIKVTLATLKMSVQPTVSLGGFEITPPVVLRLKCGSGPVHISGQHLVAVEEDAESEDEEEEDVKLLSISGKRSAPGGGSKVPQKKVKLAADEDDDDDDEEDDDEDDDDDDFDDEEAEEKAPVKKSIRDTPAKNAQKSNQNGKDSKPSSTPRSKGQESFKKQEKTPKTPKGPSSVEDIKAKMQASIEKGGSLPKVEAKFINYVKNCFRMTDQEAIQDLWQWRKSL
Sequence of NPM/ALK (Nucleophosmin/ALK tyrosine kinase receptor) (Homo sapiens) (Q9UM73 19-1620 limits assumed): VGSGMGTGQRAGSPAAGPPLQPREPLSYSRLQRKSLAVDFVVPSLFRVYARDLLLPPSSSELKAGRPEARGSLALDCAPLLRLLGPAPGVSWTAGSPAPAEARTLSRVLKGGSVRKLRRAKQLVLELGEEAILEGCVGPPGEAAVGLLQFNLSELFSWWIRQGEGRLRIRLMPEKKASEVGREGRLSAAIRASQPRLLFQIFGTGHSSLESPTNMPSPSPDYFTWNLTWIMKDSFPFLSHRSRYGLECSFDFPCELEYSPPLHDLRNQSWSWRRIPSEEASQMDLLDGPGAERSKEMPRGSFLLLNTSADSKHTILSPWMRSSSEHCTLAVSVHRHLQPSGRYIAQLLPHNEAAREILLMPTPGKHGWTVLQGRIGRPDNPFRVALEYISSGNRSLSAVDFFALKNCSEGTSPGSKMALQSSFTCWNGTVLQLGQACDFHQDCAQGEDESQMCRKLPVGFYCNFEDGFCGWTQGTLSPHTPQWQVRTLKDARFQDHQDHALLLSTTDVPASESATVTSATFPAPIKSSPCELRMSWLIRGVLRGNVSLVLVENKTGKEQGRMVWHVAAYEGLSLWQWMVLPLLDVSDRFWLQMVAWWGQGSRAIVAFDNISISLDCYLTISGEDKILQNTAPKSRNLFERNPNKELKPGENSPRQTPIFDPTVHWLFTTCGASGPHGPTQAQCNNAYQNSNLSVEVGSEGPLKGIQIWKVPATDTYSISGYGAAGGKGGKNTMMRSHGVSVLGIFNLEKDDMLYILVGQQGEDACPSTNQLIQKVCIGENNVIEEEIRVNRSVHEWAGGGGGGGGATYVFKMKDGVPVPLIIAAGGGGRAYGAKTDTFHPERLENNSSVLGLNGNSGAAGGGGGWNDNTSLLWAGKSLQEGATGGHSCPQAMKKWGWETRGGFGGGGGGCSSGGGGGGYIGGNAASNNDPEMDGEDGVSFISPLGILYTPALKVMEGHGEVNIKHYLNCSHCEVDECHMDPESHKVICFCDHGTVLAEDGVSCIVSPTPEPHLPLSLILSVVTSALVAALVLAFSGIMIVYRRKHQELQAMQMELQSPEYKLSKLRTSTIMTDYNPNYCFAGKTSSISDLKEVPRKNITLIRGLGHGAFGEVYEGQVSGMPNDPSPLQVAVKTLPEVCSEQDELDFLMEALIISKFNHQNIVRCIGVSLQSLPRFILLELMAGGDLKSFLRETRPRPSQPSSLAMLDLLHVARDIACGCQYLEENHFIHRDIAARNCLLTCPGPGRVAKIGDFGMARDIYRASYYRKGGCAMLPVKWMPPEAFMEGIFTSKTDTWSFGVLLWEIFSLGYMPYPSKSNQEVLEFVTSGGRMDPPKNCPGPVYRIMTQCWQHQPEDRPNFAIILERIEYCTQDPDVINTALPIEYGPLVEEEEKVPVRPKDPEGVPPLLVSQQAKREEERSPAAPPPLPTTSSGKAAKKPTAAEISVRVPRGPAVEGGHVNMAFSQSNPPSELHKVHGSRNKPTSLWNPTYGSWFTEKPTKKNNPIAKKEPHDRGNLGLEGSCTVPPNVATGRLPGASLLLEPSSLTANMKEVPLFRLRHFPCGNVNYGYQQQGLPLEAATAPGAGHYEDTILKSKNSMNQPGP

ALK-TPM3 (Homo sapiens) = ALK-TPM3 (Homo sapiens) (UniProt Q9UM73+P06753); test: Inhibition of ALK-TPM3 (unknown origin) assessed as residual activity at 1 uM relative to control; assay type: protein assay
[15] = Metabolic stability in human liver microsome assessed as parent compound remaining preincubated for 10 mins followed by NADPH addition and measured at 30 mins by LC-MS/MS analysis; assay type: ADME; conditions: liver microsomes, time 40 min, read-out: Stability
[16] = biological target: Leucine-rich repeat serine/threonine-protein kinase 2 (Homo sapiens) (UniProt Q5S007); test: Inhibition of LRRK2 (unknown origin) assessed as residual activity at 1 uM relative to control
[17] = biological target: NUAK family SNF1-like kinase 1 (Homo sapiens) (UniProt O60285); test: Inhibition of ARK5 (unknown origin) assessed as residual activity at 1 uM relative to control
Sequence of NUAK family SNF1-like kinase 1 (Homo sapiens) (O60285 whole entry): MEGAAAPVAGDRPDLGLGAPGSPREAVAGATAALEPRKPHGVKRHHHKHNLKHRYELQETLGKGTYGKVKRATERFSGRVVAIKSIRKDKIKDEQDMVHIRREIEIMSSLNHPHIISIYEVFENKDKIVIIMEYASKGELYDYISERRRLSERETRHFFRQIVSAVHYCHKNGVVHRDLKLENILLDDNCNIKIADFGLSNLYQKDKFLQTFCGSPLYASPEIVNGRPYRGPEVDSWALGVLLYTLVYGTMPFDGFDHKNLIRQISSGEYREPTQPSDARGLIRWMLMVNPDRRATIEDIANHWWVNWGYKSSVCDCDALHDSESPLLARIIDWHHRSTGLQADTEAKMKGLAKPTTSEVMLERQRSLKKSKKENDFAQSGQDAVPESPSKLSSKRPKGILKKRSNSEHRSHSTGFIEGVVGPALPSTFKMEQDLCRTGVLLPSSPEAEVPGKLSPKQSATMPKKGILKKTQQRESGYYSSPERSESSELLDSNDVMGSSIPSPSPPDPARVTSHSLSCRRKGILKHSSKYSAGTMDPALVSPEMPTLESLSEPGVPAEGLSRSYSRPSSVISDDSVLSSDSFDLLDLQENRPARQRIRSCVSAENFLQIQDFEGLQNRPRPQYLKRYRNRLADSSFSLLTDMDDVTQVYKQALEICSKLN

[18] = MRT (0 to t) in Sprague-Dawley rat at 10 mg/kg, po measured upto 24 hrs by LC-MS/MS analysis; assay type: ADME, organism-based; conditions: in vivo
[19] = AUC (0 to infinity) in Sprague-Dawley rat at 2 mg/kg, iv measured upto 24 hrs by LC-MS/MS analysis; assay type: ADME, organism-based; design: dose 2 mg/kg, time < 24 hrs, route iv; conditions: in vivo
[20] = Half life in Sprague-Dawley rat at 2 mg/kg, iv measured upto 24 hrs by LC-MS/MS analysis; assay type: ADME, organism-based; conditions: in vivo
[21] = Volume of distribution at steady state in Sprague-Dawley rat at 2 mg/kg, iv measured upto 24 hrs by LC-MS/MS analysis; assay type: ADME, organism-based; conditions: in vivo, read-out: Vdss
[22] = tested on: ALK tyrosine kinase receptor (Homo sapiens), Q9UM73 [T1151M]; test: Inhibition of ALK T1151M mutant (unknown origin) assessed as residual activity at 1 uM relative to control
[23] = tested on: ALK tyrosine kinase receptor (Homo sapiens), Q9UM73 [L1152R]; test: Inhibition of ALK L1152R mutant (unknown origin) assessed as residual activity at 1 uM relative to control
[24] = Oral bioavailability in Sprague-Dawley rat at 10 mg/kg measured upto 24 hrs by LC-MS/MS analysis; assay type: ADME, organism-based; conditions: in vivo
[25] = biological target: Leukocyte tyrosine kinase receptor (Homo sapiens) (UniProt P29376); test: Inhibition of TYK1 (unknown origin) assessed as residual activity at 1 uM relative to control
[26] = Antiproliferative activity against human RBE cells assessed inhibition of cell growth incubated for 72 hrs by CCK-8 assay; assay type: functional, cell-based
[27] = biological target: Tyrosine-protein kinase Fes/Fps (Homo sapiens) (UniProt P07332); test: Inhibition of FES (unknown origin) assessed as residual activity at 1 uM relative to control
[28] = tested on: ALK tyrosine kinase receptor (Homo sapiens), Q9UM73 [G1269A]; test: Inhibition of ALK G1269A mutant (unknown origin) assessed as residual activity at 1 uM relative to control
[29] = tested on: Fibroblast growth factor receptor 2 (Homo sapiens), P21802 [V564F]; test: Inhibition of FGFR2 V564F mutant (unknown origin) assessed as residual activity at 1 uM relative to control
HT-29 = test: Antiproliferative activity against human HT-29 cells assessed inhibition of cell growth incubated for 72 hrs by CCK-8 assay; assay type: functional, cell-based; conditions: HT-29, 72 h
[30] = biological target: Mitogen-activated protein kinase kinase kinase 9 (Homo sapiens) (UniProt P80192); test: Inhibition of MLK1 (unknown origin) assessed as residual activity at 1 uM relative to control
[31] = AUC (0 to t) in Sprague-Dawley rat at 10 mg/kg, po measured upto 24 hrs by LC-MS/MS analysis; assay type: ADME, organism-based; design: time < 24 hrs, dose 10 mg/kg, route po; conditions: in vivo
MV4-11 = test: Antiproliferative activity against human MV4-11 cells assessed inhibition of cell growth incubated for 72 hrs by CCK-8 assay; assay type: functional, cell-based; conditions: MV4-11, 72 h
[32] = Cmax in Sprague-Dawley rat at 10 mg/kg, po measured upto 24 hrs by LC-MS/MS analysis; assay type: ADME, organism-based; design: time < 24 hrs, dose 10 mg/kg, route po; conditions: in vivo

Activity [1]: < 10% | MRT inf [2]: 21.2 min | Activity [3]: < 10% | Activity [4]: < 10% | Activity [5]: < 10% | Activity [6]: < 10% | MRT inf [7]: 73.8 min | Activity [8]: < 10% | IC50 (MDA-MB-468): 221 nM | Activity [10]: < 10% | Activity [11]: < 10% | Tmax [12]: 20 min | Activity [13]: < 10% | Activity [14]: < 10% | Activity (ALK-TPM3 (Homo sapiens)): < 10% | remaining at 0.5 h [15]: 48.7% | Activity [16]: < 10% | Activity [17]: < 10% | MRT last at 24 h [18]: 66.6 min | AUC(0-inf) [19]: 1050 ng·h/mL | half-life [20]: 49.5 min | Vd [21]: 0.672 L/kg | Activity [22]: < 10% | Activity [23]: < 10% | bioavailability [24]: 3.95% | Activity [25]: < 10% | Activity [27]: < 10% | Activity [28]: < 10% | Activity [29]: < 10% | IC50 (HT-29): > 10000 nM | Activity [30]: < 10% | AUC(0-t) at 24 h [31]: 204 ng·h/mL | IC50 (MV4-11): 823 nM | Cmax [32]: 160 ng/mL
Structure (SMILES): CCc1cccc(CC)c1N1CCn2cc(-c3nc(Nc4ccc(N5CCN(C(C)=O)CC5)cc4OC)nc4[nH]ncc34)cc2C1=O
Activity [9]: Non-Toxic | IC50 [26]: > 10000 nM
